{"source": "paper PMC12469269", "about": "“Investigating SMR Peptide Interactions with Breast Cancer-Associated Proteins” (International Journal of Molecular Sciences, 2025)", "system": "Jurkat T cells", "assay": "EV secretion, Nef-GFP (Figure 6A), Jurkat T cells", "assay_type": "cell-based", "details": "349.6 nM SMRwt-CPP or 357.27 nM VIMwt-CPP, 24 h", "protocol": "To investigate whether SMRwt and VIMwt peptides can suppress extracellular vesicle (EV) secretion, Jurkat T cells were co-transfected with wild-type Nef-GFP and treated with either SMRwt-CPP (349.6 nM) or VIMwt-CPP (357.27 nM) peptides. GFP fluorescence in the culture media was used as a proxy for Nef-associated EV release after 24 h of incubation.\nFigure 6 SMRwt and VIMwt peptides decrease extracellular vesicle secretion in Jurkat T cells and breast cancer cells. (A) Jurkat T cells were co-transfected with 1 µg of wild-type Nef-GFP plasmid and treated with either 349.6 nM SMRwt-CPP or 357.27 nM VIMwt-CPP peptides. After 24 h at 37 °C, culture media were collected and assayed for extracellular vesicle (EV) secretion using GFP fluorescence as a proxy. (B,C) MDA-MB-231 and MCF-7 breast cancer cells were treated with either 349.6 nM SMRwt-CPP or 357.27 nM VIMwt-CPP peptides for 24 h at 37 °C. Cells were then labeled with 5 µM N-Rh-PE at 4 °C for 1 h, washed, and incubated in fresh media for an additional 24 h. Supernatants were assayed for EV secretion using N-Rh-PE fluorescence. Bar graphs show relative EV levels. Data represent mean ± SD from three independent experiments. Statistical comparisons were performed using appropriate tests; p-values are indicated. […]", "data": [{"substance": "H-LYEEEMREGRKKRRQRRRPPQ - OH [VIMwt-CPP]", "values": [{"measurement": "p, peptide vs Nef-GFP alone, EV secretion", "value": "< 0.0006"}]}]}
